Measured values as given in ChEMBL document CHEMBL2062409, “Conformationally-restricted cyclic sulfones as potent and selective mTOR kinase inhibitors” (Bioorg Med Chem Lett, 2012).

How the values were obtained:
Homo sapiens = species on record: Homo sapiens; experiment: Selectivity ratio of Ki for PI3Kalpha to Ki for mTOR
[1] = target: T1, Serine/threonine-protein kinase mTOR (Homo sapiens, UniProt P42345); experiment: Inhibition of mTOR
[2] = Clearance in human liver microsomes assessed per mg of protein; format: ADME, Microsome; settings: read-out: CLH
[3] = target: T2, Phosphatidylinositol 4,5-bisphosphate 3-kinase catalytic subunit alpha isoform (Homo sapiens, UniProt P42336); experiment: Inhibition of PI3Kalpha
T2 sequence (P42336 whole entry, canonical isoform): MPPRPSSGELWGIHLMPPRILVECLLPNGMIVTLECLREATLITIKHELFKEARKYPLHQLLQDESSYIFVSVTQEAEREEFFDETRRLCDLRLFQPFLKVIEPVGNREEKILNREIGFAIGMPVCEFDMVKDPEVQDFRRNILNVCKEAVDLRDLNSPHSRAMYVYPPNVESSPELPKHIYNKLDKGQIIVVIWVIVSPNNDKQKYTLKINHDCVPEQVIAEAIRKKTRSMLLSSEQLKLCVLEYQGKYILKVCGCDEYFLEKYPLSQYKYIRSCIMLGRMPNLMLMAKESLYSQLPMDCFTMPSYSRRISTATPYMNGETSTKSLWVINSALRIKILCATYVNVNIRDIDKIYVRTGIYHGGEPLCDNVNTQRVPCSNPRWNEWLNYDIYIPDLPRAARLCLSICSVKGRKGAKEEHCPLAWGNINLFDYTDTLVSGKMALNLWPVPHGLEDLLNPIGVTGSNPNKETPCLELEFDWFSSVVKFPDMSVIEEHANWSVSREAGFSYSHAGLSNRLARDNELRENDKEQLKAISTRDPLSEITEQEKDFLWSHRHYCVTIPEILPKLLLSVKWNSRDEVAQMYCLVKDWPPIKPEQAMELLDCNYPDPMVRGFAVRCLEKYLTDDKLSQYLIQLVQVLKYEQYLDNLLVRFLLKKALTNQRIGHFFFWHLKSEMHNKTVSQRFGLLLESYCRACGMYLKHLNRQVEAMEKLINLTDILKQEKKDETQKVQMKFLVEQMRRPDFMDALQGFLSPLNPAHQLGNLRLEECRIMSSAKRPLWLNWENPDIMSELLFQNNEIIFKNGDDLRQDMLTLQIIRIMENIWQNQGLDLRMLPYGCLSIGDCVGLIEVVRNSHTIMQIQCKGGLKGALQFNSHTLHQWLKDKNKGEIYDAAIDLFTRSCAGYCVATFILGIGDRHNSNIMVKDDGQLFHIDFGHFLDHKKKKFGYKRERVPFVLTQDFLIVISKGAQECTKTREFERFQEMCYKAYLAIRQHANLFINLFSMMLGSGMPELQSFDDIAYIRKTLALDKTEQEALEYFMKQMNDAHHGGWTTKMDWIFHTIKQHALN

[4] = Clearance in human hepatocytes assessed per million cells; format: ADME, cell-based, Hepatocyte; settings: read-out: CLH
CYP2D6 = CYP2D6 (Homo sapiens, UniProt P10635); experiment: Inhibition of CYP2D6 at 3 uM; format: ADME
Sequence of CYP2D6 (P10635 whole entry): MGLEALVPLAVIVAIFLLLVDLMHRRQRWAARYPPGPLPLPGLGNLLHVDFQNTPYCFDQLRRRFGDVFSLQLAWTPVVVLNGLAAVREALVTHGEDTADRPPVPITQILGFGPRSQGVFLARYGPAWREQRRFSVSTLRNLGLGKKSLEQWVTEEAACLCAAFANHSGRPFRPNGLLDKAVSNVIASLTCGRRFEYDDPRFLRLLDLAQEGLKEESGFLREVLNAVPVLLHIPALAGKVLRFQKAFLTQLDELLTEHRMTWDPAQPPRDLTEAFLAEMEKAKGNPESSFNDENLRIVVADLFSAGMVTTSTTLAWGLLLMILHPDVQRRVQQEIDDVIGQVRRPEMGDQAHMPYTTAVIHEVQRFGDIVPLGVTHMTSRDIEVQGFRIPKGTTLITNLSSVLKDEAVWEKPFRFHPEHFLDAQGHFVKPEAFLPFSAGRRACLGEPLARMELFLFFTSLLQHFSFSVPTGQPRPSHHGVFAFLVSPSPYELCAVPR

CYP3A4 = CYP3A4 (Homo sapiens, UniProt P08684); experiment: Inhibition of CYP3A4 at 3 uM; format: ADME
Sequence of CYP3A4 (P08684 whole entry): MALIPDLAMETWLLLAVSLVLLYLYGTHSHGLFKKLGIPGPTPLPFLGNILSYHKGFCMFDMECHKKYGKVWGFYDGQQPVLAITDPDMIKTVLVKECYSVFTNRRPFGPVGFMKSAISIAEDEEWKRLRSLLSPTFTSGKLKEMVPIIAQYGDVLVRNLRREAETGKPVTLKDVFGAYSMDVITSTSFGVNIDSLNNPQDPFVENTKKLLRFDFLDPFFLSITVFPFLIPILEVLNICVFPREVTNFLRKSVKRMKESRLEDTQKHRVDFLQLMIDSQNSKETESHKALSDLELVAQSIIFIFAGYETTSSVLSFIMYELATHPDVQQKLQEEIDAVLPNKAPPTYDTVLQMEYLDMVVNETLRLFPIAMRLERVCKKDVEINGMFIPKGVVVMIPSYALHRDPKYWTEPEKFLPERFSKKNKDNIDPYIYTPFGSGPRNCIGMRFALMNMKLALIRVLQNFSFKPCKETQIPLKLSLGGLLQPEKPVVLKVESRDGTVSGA

CYP1A2 = target: T3, CYP1A2 (Homo sapiens, UniProt P05177); experiment: Inhibition of CYP1A2 at 3 uM; format: ADME
T3 sequence (P05177 whole entry): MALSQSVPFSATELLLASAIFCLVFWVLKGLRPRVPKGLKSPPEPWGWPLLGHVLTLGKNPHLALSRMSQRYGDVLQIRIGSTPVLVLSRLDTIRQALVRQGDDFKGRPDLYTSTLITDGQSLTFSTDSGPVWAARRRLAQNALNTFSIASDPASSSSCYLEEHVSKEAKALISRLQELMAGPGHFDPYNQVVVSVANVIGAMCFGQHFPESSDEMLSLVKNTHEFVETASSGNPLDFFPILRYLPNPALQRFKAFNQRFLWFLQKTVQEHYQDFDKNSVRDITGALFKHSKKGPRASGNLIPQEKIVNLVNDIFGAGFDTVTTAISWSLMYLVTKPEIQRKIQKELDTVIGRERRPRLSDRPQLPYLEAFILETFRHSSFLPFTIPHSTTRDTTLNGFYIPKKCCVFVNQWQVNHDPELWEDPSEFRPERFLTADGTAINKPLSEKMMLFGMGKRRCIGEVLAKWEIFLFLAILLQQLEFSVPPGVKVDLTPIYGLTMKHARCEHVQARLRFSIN

CYP2C9 = CYP2C9 (Homo sapiens, UniProt P11712); experiment: Inhibition of CYP2C9 at 3 uM; format: ADME
Sequence of CYP2C9 (P11712 whole entry): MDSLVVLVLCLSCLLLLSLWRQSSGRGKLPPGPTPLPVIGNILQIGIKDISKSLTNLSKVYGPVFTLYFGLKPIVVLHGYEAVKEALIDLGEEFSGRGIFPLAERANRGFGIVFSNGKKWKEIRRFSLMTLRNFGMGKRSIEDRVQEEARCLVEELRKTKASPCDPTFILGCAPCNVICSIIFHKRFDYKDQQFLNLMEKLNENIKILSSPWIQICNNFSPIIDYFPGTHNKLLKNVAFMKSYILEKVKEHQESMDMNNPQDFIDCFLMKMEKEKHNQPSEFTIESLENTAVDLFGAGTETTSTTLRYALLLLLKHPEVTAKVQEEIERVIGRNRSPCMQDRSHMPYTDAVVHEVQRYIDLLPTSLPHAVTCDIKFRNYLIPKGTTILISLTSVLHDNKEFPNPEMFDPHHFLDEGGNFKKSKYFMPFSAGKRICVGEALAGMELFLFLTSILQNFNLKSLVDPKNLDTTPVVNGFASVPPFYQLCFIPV

[5] = target: T1, Serine/threonine-protein kinase mTOR; experiment: Inhibition of mTOR-mediated AKT phosphorylation at Ser473 by cell based assay
[6] = Half life in rat; format: ADME, organism-based; settings: in vivo
[7] = Drug excretion in rat; format: ADME, organism-based; settings: in vivo, read-out: Drug excretion
[8] = Clearance in rat; format: ADME, organism-based; settings: in vivo
Salmonella typhimurium = experiment: Genotoxicity in Salmonella typhimurium; format: toxicity, organism-based; settings: salmonella enterica subsp. enterica serovar typhimurium
[9] = target: T1, Serine/threonine-protein kinase mTOR; experiment: Inhibition of mTOR-mediated ribosomal protein S6 kinase phosphorylation by cell based assay
[10] = Oral bioavailability in rat; format: ADME, organism-based; settings: in vivo
[11] = target: T2, Phosphatidylinositol 4,5-bisphosphate 3-kinase catalytic subunit alpha isoform; experiment: Inhibition of PI3Kalpha at 100 nM

SMILES	Ki [1]	microsomal CLint [2]	Ki [3]	hepatocyte CLint [4]	IC50 [5]	inhibition [11]	other results
CCNC(=O)Nc1ccc(-c2nc3c(c(N4CCOCC4)n2)CS(=O)(=O)C3)cc1	25 nM	< 8 µL/min/mg	514 nM	< 2 µL/min/1e6 cells	–	–	Ratio Ki (Homo sapiens): 20
CCNC(=O)Nc1ccc(-c2nc3c(c(N4C[C@H]5CC[C@@H](C4)O5)n2)CS(=O)(=O)C3)cc1	7 nM	–	–	–	84 nM	18%	–
CCNC(=O)Nc1ccc(-c2nc3c(c(N4C[C@@H]5C[C@H]4CO5)n2)CS(=O)(=O)C3)cc1	62 nM	–	–	–	1290 nM	3%	–
CCNC(=O)Nc1ccc(-c2nc3c(c(N4C[C@H]5CC[C@@H](C4)O5)n2)CS(=O)(=O)CC3)cc1	5 nM	–	3000 nM	–	55 nM	–	–

More lines, main results first:

Ki [1]	microsomal CLint [2]	Ki [3]	hepatocyte CLint [4]	IC50 [5]	inhibition [11]	SMILES	other results
8 nM	8.7 µL/min/mg	> 4550 nM	< 2 µL/min/1e6 cells	48 nM	–	CCNC(=O)Nc1ccc(-c2nc3c(c(N4CCOC[C@@H]4C)n2)CS(=O)(=O)CC3)cc1	inhibition at 3 µM (CYP2D6): ≤ 25%; inhibition at 3 µM (CYP3A4): ≤ 25%; inhibition at 3 µM (CYP1A2): ≤ 25%; inhibition at 3 µM (CYP2C9): ≤ 25%; Ratio Ki (Homo sapiens): > 500; half-life [6]: 1.05 h; dose excreted [7]: 5.5%; clearance [8]: 66.2 mL/min/kg; Activity (Salmonella typhimurium): Non-toxic; IC50 [9]: 6 nM; bioavailability [10]: 30%
120 nM	25 µL/min/mg	–	11 µL/min/1e6 cells	–	7%	CCNC(=O)Nc1ccc(-c2nc3c(c(N4CCOC[C@H]4C)n2)S(=O)(=O)CC3)cc1	–
50 nM	58 µL/min/mg	> 4550 nM	28 µL/min/1e6 cells	–	–	CCNC(=O)Nc1ccc(-c2nc3c(c(N4CCOC[C@@H]4C)n2)S(=O)(=O)CCC3)cc1	–
50 nM	< 8 µL/min/mg	> 4550 nM	< 2 µL/min/1e6 cells	–	–	CCNC(=O)Nc1ccc(-c2nc3c(c(N4CCOCC4)n2)CS(=O)(=O)CC3)cc1	–
52 nM	–	> 4550 nM	–	–	–	CCNC(=O)Nc1ccc(-c2nc3c(c(N4CCOC[C@H]4C)n2)CS(=O)(=O)CC3)cc1	–
